Reference: patent publication US12435026B2, “Solabegron zwitterion and uses thereof” (B3AR THERAPEUTICS, INC., priority 2015, dated 2025)

Columns and labels:
[1] = Solubility among forms of solabegron; assay type: physicochemical
Source text: After extensive effort, applicants have newly discovered two crystalline forms of solabegron zwitterion. One form, form I, is an anhydrous crystalline form and is characterized by an x-ray powder diffraction pattern having peaks expressed in degrees 2θ (±2) at 6.2, 12.5; 18.8; 20.6; and 25.2. A second form, form II is a hydrate of isopropanol solvate and is characterized by an x-ray powder diffraction pattern having peaks expressed in degrees 2θ (±2) at 17.6, 18.7, 19.6, 20.1, 20.5, 23.7, and 25.8. (See EXAMPLE 3 and FIGS. 7, 12 and 14). […] After isolation the solabegron crystals can be dissolved and then crystallized to the solabegron HCL salt form, which is currently being investigated clinically. Of equal importance, the pharmaceutical compositions of solabegron zwitterion disclosed herein could be used as the active ingredient clinically, replacing the need for the HCl salt form of solabegron.

[2] = Relative stability of solabegron zwitterion Forms I and II via slurry conditioning in IPA/H2O; assay type: physicochemical; details: for relative stability of crystal forms: slurry conditioning in IPA/H2O with different ratio (FIG. 10)
Method: The relative stability of solabegron zwitterion Forms I and II was evaluated via slurry conditioning of either solabegron zwitterion Form I or a mixture of solabegron zwitterion Forms I and II in IPA/H2O with different ratio, for a) confirmation of relative stability of the two solabegron zwitterion forms, and b) rational process design and control. The table in FIG. 10 lists the testing conditions and results.

[3] = system: women with moderate to severe OAB; details: Ohlstein et al., Eur. Urol. 2012; cited from earlier work

O=C(O)c1cccc(-c2cccc(NCCNC[C@H](O)c3cccc(Cl)c3)c2)c1 [Solabegron zwitterion]
solubility relative to other forms of solabegron [1]: least soluble form of solabegron

O=C(O)c1cccc(-c2cccc(NCCNC[C@H](O)c3cccc(Cl)c3)c2)c1 [solabegron zwitterion Form II]
relative stability of crystal forms [2]: more stable than solabegron zwitterion Form I | relative stability of crystal forms ([2]; listed as form II solabegron zwitterion): more stable than the form I solabegron zwitterion

O=C(O)c1cccc(-c2cccc(NCCNC[C@H](O)c3cccc(Cl)c3)c2)c1 [solabegron zwitterion Form I]
crystal form resulting from slurry conditioning ([2]; starting with Form I alone or a mixture of Forms I and II, IPA/H2O with different ratio (FIG. 10)): Solabegron zwitterion Form II resulted from all tested conditions

O=C(O)c1cccc(-c2cccc(NCCNC[C@H](O)c3cccc(Cl)c3)c2)c1 [solabegron, 3′-[(2-{[(2R)-2-(3-chlorophenyl)-2-hydroxyethyl]amino}ethyl)amino]biphenyl-3-carboxylic acid]
safety and tolerability; adverse events as compared to placebo [3]: safe, well tolerated, and does not demonstrate significant differences in adverse events as compared to placebo | symptoms of OAB [3]: significantly reduced the symptoms of OAB
